What was measured:
NMDA receptor = conditions: previous report; cited from earlier work
neutrophils = experiment: Neutrophil infiltration into spinal cord by flow cytometry; assay type: in vivo, mouse; conditions: flow cytometry (high CD45 and Gr-1), 1 and 5 days after spinal cord injury, vs saline
Protocol: (§1) Adult male C57BL/6 mice (20˜30 g) were anaesthetized with chloral hydrate (500 mg/kg) and T8˜T10 were exposed. The exposed T9 was subjected to contusion injury (by dropping a weight at the impact strength of 40 kd) using PSI (Precision Systems and Instrumentation) impactor. After confirming that a certain damage was given within the error range based on the data of injury level, the incision sites were sealed. After disinfecting the incision sites, the mice were raised in cages (2 mice/cage). Urination was induced by massaging the bladder three times a day. […] Louis, Mo.) dissolved in saline was immediately administered into injured mice via intraperitoneal injection (200 mg/kg). Saline was administered for the control. The administration was performed once a day and continued for 2 weeks. The spinal cord tissue was extracted 1 and 5 days after spinal cord injury, which was added into PBS. The spinal cord tissue in PBS was mechanically disrupted with a dounce homogenizer, followed by centrifugation at 1,100 rpm for 10 minutes. The obtained pellet was resuspended in FBS containing buffer, which was centrifuged at 3,000 rpm for 7 minutes. […] After washing with FBS containing buffer, neutrophils and macrophages infiltrated into spinal cord 1 and 5 days after spinal cord injury were measured by using Becton Dickinson LSR Benchtop Flow Cytometer (BD Biosciences). […]

[1] = maximal electroshock convulsion test in mouse; Leander 1992; cited from earlier work
MMP-9 [2] = experiment: MMP-9 expression by RT-PCR in spinal cord tissue after spinal cord injury; assay type: in vivo; conditions: mouse treated with fluoxetine (200 mg/kg i.p. once a day) after spinal cord injury vs saline
Protocol: (§2) Adult male C57BL/6 mice (20˜30 g) were anaesthetized with chloral hydrate (500 mg/kg) and T8˜T10 were exposed. The exposed T9 was subjected to contusion injury (by dropping a weight at the impact strength of 40 kd) using PSI (Precision Systems and Instrumentation) impactor. After confirming that a certain damage was given within the error range based on the data of injury level, the incision sites were sealed. After disinfecting the incision sites, the mice were raised in cages (2 mice/cage). Urination was induced by massaging the bladder three times a day. […] Louis, Mo.) dissolved in saline was immediately administered into injured mice via intraperitoneal injection (200 mg/kg). Saline was administered for the control. The administration was performed once a day and continued for 2 weeks. […] Spinal nerve was cut, followed by embedding in OCT compound, which was sectioned by using a cryostat. The spinal cord tissue for the extraction of RNA and protein proceeded to perfusion with PBS. Then, the spinal cord tissue was cut 0.8 cm from the injured area, which was stored in liquid nitrogen at −80° C. until use. RNA was extracted by using TRIZOL Reagent (Invitrogen) according to manufacturer's manual. Total reaction mixture (20 μl) containing 1 μg of RNA was prepared, followed by RT-PCR using MMLV reverse transcriptase (Invitrogen). […]

spinal cord injury mouse = experiment: Animal behavioral test (BBB test), recovery of exercise function after spinal cord injury; assay type: in vivo
Protocol: Adult male C57BL/6 mice (20˜30 g) were anaesthetized with chloral hydrate (500 mg/kg) and T8˜T10 were exposed. The exposed T9 was subjected to contusion injury (by dropping a weight at the impact strength of 40 kd) using PSI (Precision Systems and Instrumentation) impactor. After confirming that a certain damage was given within the error range based on the data of injury level, the incision sites were sealed. After disinfecting the incision sites, the mice were raised in cages (2 mice/cage). Urination was induced by massaging the bladder three times a day. […] Louis, Mo.) dissolved in saline was immediately administered into injured mice via intraperitoneal injection (200 mg/kg). Saline was administered for the control. The administration was performed once a day and continued for 2 weeks. BBB test is the method to evaluate the recovery of various nerve fascicles controlling exercise function in combination, in which scores are recorded from 0 to 21. […] A normal mouse got 21 scores for that. So, the exercise function is regarded to be improved as the score got higher. […] The mice were let go freely in the box so as for the mice to be adapted to the experimental environment. […] The average of BBB test scores obtained from those five trained experimenters was considered as the final BBB score for the mouse. To eliminate personal prejudice on the test animal, the experimenters were not given any information on the mice. They only observed the mice 4 minutes every time to give scores.

MMP-9 [3] = experiment: MMP-9 activation by gelatin zymography of spinal cord tissue after spinal cord injury; assay type: in vivo, mouse; conditions: spinal cord tissue 1 day (peak time) after spinal cord injury, vs saline
Protocol: (§3) Adult male C57BL/6 mice (20˜30 g) were anaesthetized with chloral hydrate (500 mg/kg) and T8˜T10 were exposed. The exposed T9 was subjected to contusion injury (by dropping a weight at the impact strength of 40 kd) using PSI (Precision Systems and Instrumentation) impactor. […] Louis, Mo.) dissolved in saline was immediately administered into injured mice via intraperitoneal injection (200 mg/kg). Saline was administered for the control. The administration was performed once a day and continued for 2 weeks. […] Then, the gel was loaded in renaturing buffer (2.5% Triton X-100), followed by incubation at room temperature for 30 minutes. The gel was loaded in developing buffer (50 mM Tris-HCl, pH 8.5, 0.2 M NaCl, 5 mM CaCl2, 0.02% Brii35), which stood at 37° C. for 24 hours. […] At this time, the clear band on the zymogram gel indicated gelatinase activity.

macrophages = experiment: Macrophage infiltration into spinal cord by flow cytometry; assay type: in vivo, mouse; conditions: flow cytometry (high CD45 and CD11b), 1 and 5 days after spinal cord injury, vs saline
Protocol: as §1

MMP-12 = MMP-12 expression by RT-PCR in spinal cord tissue after spinal cord injury; assay type: in vivo; conditions: mouse treated with fluoxetine (200 mg/kg i.p. once a day) after spinal cord injury vs saline
Protocol: as §2

ZO-1 [4] = experiment: ZO-1 (tight junction protein) amount by western blot after spinal cord injury; assay type: in vivo, mouse; conditions: vs saline
Protocol: Adult male C57BL/6 mice (20˜30 g) were anaesthetized with chloral hydrate (500 mg/kg) and T8˜T10 were exposed. The exposed T9 was subjected to contusion injury (by dropping a weight at the impact strength of 40 kd) using PSI (Precision Systems and Instrumentation) impactor. After confirming that a certain damage was given within the error range based on the data of injury level, the incision sites were sealed. After disinfecting the incision sites, the mice were raised in cages (2 mice/cage). Urination was induced by massaging the bladder three times a day. […] Louis, Mo.) dissolved in saline was immediately administered into injured mice via intraperitoneal injection (200 mg/kg). Saline was administered for the control. The administration was performed once a day and continued for 2 weeks. […] The protein was transferred onto nitrocellulose membrane, followed by western blot according to the protocol described in each antibody data sheet.

MMP-2 [5] = experiment: MMP-2 expression by RT-PCR in spinal cord tissue after spinal cord injury; assay type: in vivo; conditions: mouse treated with fluoxetine (200 mg/kg i.p. once a day) after spinal cord injury vs saline
Protocol: as §2

CCL-3 = CCL-3 chemoattractant expression by RT-PCR after spinal cord injury; assay type: in vivo, mouse; conditions: 1~5 days after spinal cord injury
Protocol: (§4) Adult male C57BL/6 mice (20˜30 g) were anaesthetized with chloral hydrate (500 mg/kg) and T8˜T10 were exposed. The exposed T9 was subjected to contusion injury (by dropping a weight at the impact strength of 40 kd) using PSI (Precision Systems and Instrumentation) impactor. After confirming that a certain damage was given within the error range based on the data of injury level, the incision sites were sealed. After disinfecting the incision sites, the mice were raised in cages (2 mice/cage). Urination was induced by massaging the bladder three times a day. […] Louis, Mo.) dissolved in saline was immediately administered into injured mice via intraperitoneal injection (200 mg/kg). Saline was administered for the control. The administration was performed once a day and continued for 2 weeks. RNA was extracted by using TRIZOL Reagent (Invitrogen) according to manufacturer's manual. Total reaction mixture (20 μl) containing 1 μg of RNA was prepared, followed by RT-PCR using MMLV reverse transcriptase (Invitrogen).

MMP-2 [6] = experiment: MMP-2 activation by gelatin zymography of spinal cord tissue after spinal cord injury; assay type: in vivo, mouse; conditions: spinal cord tissue 1 day (peak time) after spinal cord injury, vs saline
Protocol: as §3

CCL-4 = CCL-4 chemoattractant expression by RT-PCR after spinal cord injury; assay type: in vivo, mouse; conditions: 1~5 days after spinal cord injury
Protocol: as §4

ZO-1 [7] = experiment: ZO-1 immunohistochemical staining of spinal cord sections after spinal cord injury; assay type: in vivo, mouse; conditions: tissue sections after spinal cord injury, vs saline
Protocol: Adult male C57BL/6 mice (20˜30 g) were anaesthetized with chloral hydrate (500 mg/kg) and T8˜T10 were exposed. The exposed T9 was subjected to contusion injury (by dropping a weight at the impact strength of 40 kd) using PSI (Precision Systems and Instrumentation) impactor. After confirming that a certain damage was given within the error range based on the data of injury level, the incision sites were sealed. After disinfecting the incision sites, the mice were raised in cages (2 mice/cage). Urination was induced by massaging the bladder three times a day. […] Louis, Mo.) dissolved in saline was immediately administered into injured mice via intraperitoneal injection (200 mg/kg). Saline was administered for the control. The administration was performed once a day and continued for 2 weeks. […] Spinal nerve was cut, followed by embedding in OCT compound, which was sectioned by using a cryostat. […] 10 μm tissue sections were reacted under the condition proposed in each primary antibody manual, followed by color development by using secondary antibodies. For immunofluorescence staining, secondary antibodies of Jackson were used. For DAB color development, Vectastatin kit (Vector) was used.

Compound | neurotoxic effect of Aβ (NMDA receptor) | number of neutrophils in spinal cord tissues (neutrophils) | anticonvulsant effects of carbamazepine, phenytoin, and ameltolide [1] | expression of MMP-9 (MMP-9 [2]) | crossing frequency of forelegs and hind legs during walking (spinal cord injury mouse; 672 h) | BBB points, course (spinal cord injury mouse; from 1 week after spinal cord injury, compared with saline only) | BBB point (spinal cord injury mouse; ip, 200 mg/kg) | MMP-9 activity (gelatinase activity) (MMP-9 [3]) | number of macrophages in spinal cord tissues (macrophages) | expression of MMP-12 (MMP-12) | amount of ZO-1 (ZO-1 [4]) | expression of MMP-2 (MMP-2 [5]) | expression of CCL-3 (CCL-3) | MMP-2 activity (gelatinase activity) (MMP-2 [6]) | expression of CCL-4 (CCL-4) | ZO-1 (immunohistochemical staining) (ZO-1 [7])
C[C@]12N[C@H](Cc3ccccc31)c1ccccc12 [MK-801] | inhibited | – | – | – | – | – | – | – | – | – | – | – | – | – | – | –
CNCCC(Oc1ccc(C(F)(F)F)cc1)c1ccccc1 (stereo not shown) [fluoxetine] | – | significantly reduced | increased | significantly reduced | approximately 50% | began to increase | 10.2±0.92 | significantly reduced | significantly reduced | significantly reduced | not reduced | significantly reduced | suppressed | significantly reduced | suppressed | hardly reduced

Reference: patent US20140303256A1 (UNIVERSITY INDUSTRY COOPERATION GROUP OF KYUNG HEE …, priority 2011, published 2014)
